One data set concerns B16. The data set can be described thus: Tested for cytotoxic activity against B16 mouse melanoma cells in MTT assay. It counts as functional, cell-based. Background: Tetrazolium assays rely on reduction of a dye to a coloured formazan, in cell work by metabolically active cells.
A further data set concerns DA-3 cell line. The data set can be described thus: Tested for cytotoxic activity against DA-3 mouse mammary adenocarcinoma cells in MTT assay. The format is functional, cell-based.
In another data set the test system is HT-29. The data set can be described thus: Tested for cytotoxic activity against HT-29 human colon adenocarcinoma cells in MTT assay. The format is functional, cell-based.
Data set [1] has as its system MCF7. As to the kind of experiment: Tested for cytotoxic activity against MCF7-WT human breast adenocarcinoma cells in MTT assay. It counts as functional, cell-based.
Data set [2] in a line: Half-life period was determined in mouse blood. The format is ADME, organism-based.
Data set [3] has as its system MCF7. The data set can be described thus: Tested for cytotoxic activity against MCF7-WT human breast adenocarcinoma cells in MTT assay. It counts as functional, cell-based.

Some results are limits rather than exact numbers.

As usually defined, the IC50 is the concentration at which inhibition is half-maximal. High values mean weaker potency, low ones greater potency. With `CC(=O)O[C@@H]1OC(=O)[C@](O)(C(C)=O)[C@@H]1C`, the IC50 with B16, in the data set with DA-3 cell line, in the data set on HT-29 and in the data set on MCF7 [1] was > 50 µM throughout.
For `CC(=O)O[C@@H]1OC(=O)[C@@](C)(C(C)=O)[C@@H]1C`, the IC50 with B16 was 14 µM; in the data set on DA-3 cell line, 9 µM; in the data set with HT-29 it was 12 µM; in the data set on MCF7 [1] it was > 10 µM.
As a reminder, the half-life is the time needed for the level to fall by half in the phase considered. Turning to `CC(=O)O[C@@H]1OC(=O)[C@](C)(C(C)=O)[C@@H]1C`, in data set [2], the half-life is < 5 min. Besides, the IC50 in the data set with B16 came out at 4 µM; in the data set with DA-3 cell line, 7 µM; in the data set on HT-29, 5 µM; with MCF7 [1], 6 µM.
The like results for `CC(=O)[C@@]1(C)C(=O)O[C@@H](OC(=O)C(C)(C)C)[C@H]1C` were, in that order, < 5 min, 2 µM, 1 µM, 2 µM and 3 µM.
Consider `CC(=O)O[C@@H]1OC(=O)[C@](Cc2ccccc2)(C(C)=O)[C@@H]1C`, for which the IC50 in the data set with B16 amounted to 41 µM; in the data set with DA-3 cell line it was 45 µM; with HT-29, 40 µM; with MCF7 [3], 48 µM.
For `CC(=O)O[C@@H]1OC(=O)[C@](OC(=O)c2ccccc2)(C(C)=O)[C@@H]1C`, the IC50 in the data set with B16 was found to be 6 µM; in the data set with DA-3 cell line, 3 µM; in the data set on HT-29, 8 µM; in the data set with MCF7 [1] it was 22 µM.
The matching figures for `CC(=O)O[C@@H]1OC(=O)[C@@](C(C)=O)(C2SCCCS2)[C@@H]1C`: > 50 µM, > 50 µM, > 50 µM and > 50 µM.
`CC(=O)CC[C@]1(C(C)=O)C(=O)O[C@@H](OC(C)=O)[C@H]1C`: the IC50 with B16 came out at 7 µM; with DA-3 cell line it was 8 µM; in the data set on HT-29, 7 µM; with MCF7 [1] it was 6 µM.
As to `CC(=O)O[C@@H]1OC(=O)[C@](Br)(C(C)=O)[C@@H]1C`, the IC50 in the data set on B16 turned out to be 9 µM; with DA-3 cell line, 6 µM; with HT-29 it was 12 µM; with MCF7 [1], 17 µM.
The matching figures for `CC(=O)O[C@@H]1OC(=O)[C@](C)(C(=O)CBr)[C@@H]1C`: 6 µM, 4 µM, 6 µM and 4 µM.
The matching figures for `CC(=O)O[C@@H]1OC(=O)[C@@](O)(C(C)=O)[C@@H]1C`: > 50 µM, > 50 µM, > 50 µM and > 50 µM.
Turning to `CC(=O)O[C@@H]1OC(=O)[C@](OC(C)=O)(C(C)=O)[C@@H]1C`, the IC50 in the data set on B16, in the data set with DA-3 cell line, in the data set with HT-29 and with MCF7 [1] was > 50 µM each time.
For the compound `CCO[C@@H]1OC(=O)[C@@](C)(C(C)=O)[C@@H]1C`, the IC50 in the data set on B16, in the data set on DA-3 cell line, in the data set with HT-29 and in the data set on MCF7 [1] was > 50 µM throughout.
In the case of `CC(=O)O[C@@H]1OC(=O)[C@@](C)(C(=O)c2ccccc2)[C@@H]1C`, the IC50 with B16 is 7 µM; in the data set on DA-3 cell line, 15 µM; in the data set on HT-29, 7 µM; in the data set on MCF7 [3], 15 µM.
`CC(=O)O[C@@H]1OC(=O)[C@@](C)(C(C)=O)[C@@H]1C(C)C`: the IC50 with B16, with DA-3 cell line, with HT-29 and in the data set on MCF7 [1] was > 50 µM throughout.
Turning to `CC(=O)[C@]1(C)C(=O)O[C@@H](OC(=O)c2ccccc2)[C@H]1C`, the IC50 amounted to 5 µM in the data set on B16, 2 µM in the data set on DA-3 cell line, 6 µM in the data set on HT-29 and 8 µM in the data set on MCF7 [1].
Turning to `CC(=O)[C@@]1(C)C(=O)O[C@@H](OC(=O)c2ccccc2)[C@H]1C`, the half-life in data set [2] was < 5 min. For the same compound, the IC50 is 1 µM in the data set with B16, 1 µM in the data set with DA-3 cell line, 1 µM in the data set on HT-29 and 3 µM in the data set on MCF7 [1].
In the case of `CCO[C@@H]1OC(=O)[C@](C)(C(C)=O)[C@@H]1C`, the IC50 in the data set on B16, with DA-3 cell line, with HT-29 and in the data set on MCF7 [1] was > 50 µM in each case.
For `CC(=O)O[C@@H]1OC(=O)[C@@](Cc2ccccc2)(C(C)=O)[C@@H]1C`, the concentration for half-maximal inhibition (IC50) in the data set with B16 was 45 µM; in the data set with DA-3 cell line it was 44 µM; in the data set with HT-29, 39 µM; with MCF7 [1], 51 µM.
Consider `CC(=O)O[C@@H]1OC(=O)[C@](C)(C(C)=O)[C@@H]1C(C)C`, for which the IC50 in the data set with B16, with DA-3 cell line, in the data set with HT-29 and in the data set on MCF7 [1] was > 50 µM each time.
Regarding `CC(=O)O[C@@H]1OC(=O)[C@@](OC(C)=O)(C(C)=O)[C@@H]1C`, the IC50 in the data set on B16, in the data set with DA-3 cell line, with HT-29 and with MCF7 [1] was > 50 µM in each case.
As for `CC(=O)O[C@@H]1OC(=O)[C@@H](C(C)=O)[C@@H]1C`, the IC50 in the data set with B16, with DA-3 cell line, in the data set with HT-29 and in the data set with MCF7 [1] was > 50 µM throughout.
Consider `CC(=O)[C@]1(C)C(=O)O[C@@H](OC(=O)C(C)(C)C)[C@H]1C`, for which the IC50 is 10 µM with B16, 4 µM in the data set on DA-3 cell line, 9 µM in the data set on HT-29 and 7 µM in the data set with MCF7 [1].

These data come from ChEMBL document CHEMBL1128871, “Synthesis and in vitro cytotoxicity of ()-acetomycin and related analogs” (Bioorg Med Chem Lett, 1995).
